Data: a melting point compilation (Tetko et al.; mined from patent text by program, amines drawn as free bases though some values may be those of a salt)

| melting point [°C] | Structure (SMILES) |
| --- | --- |
| 230 to 232 | CCCn1nc(C2CC2)c(C(=O)O)c1Cc1ccc(-c2ccccc2S(=O)(=O)NC(=O)c2ccccc2)cc1 |
| > 250 | CCCn1c(=O)c2[nH]c(-c3ccsc3)nc2n(CCC)c1=O |
| 61 to 63 | CCOCCSC(F)(F)C(O)(Cn1cncn1)c1ccc(F)cc1F (stereo not drawn) |
| 180 to 182 | Clc1nc(NCc2cccc(I)c2)c2ncn(C3CCCO3)c2n1 (stereo not drawn) |
| 135 | CC(=O)OCC1=C(C(=O)OCOC(=O)C(C)(C)C)N2C(=O)C(NC(=O)Cc3csc(=O)s3)C2SC1 (stereo not drawn) |
| 47 to 49 | O=C(O)c1cccc(Oc2cccc(C(F)(F)F)c2)n1 |
| 78 to 81 | CCON=C(C(=O)OCC)C1=CSc2ccccc2S1 |
| 173 to 174 | O=c1c(O)c(-c2ccco2)oc2ccccc12 |
| 213 to 225 | CCCSNc1ccc(N)cc1 |
| 171 to 172 | O=C(O)CCc1oc(-n2cccn2)nc1-c1ccc(Cl)cc1 |
| 175 to 176 | N#CN=C(Nc1ccc(C#N)cc1O)Nc1ccccc1Br |
| 162 | O=C1CCCc2c1c(-c1ccccc1)nn2-c1ccccc1 |
| 105 | Cn1c(=O)c([N+](=O)[O-])c(N2CCN(C(=O)c3cccs3)CC2)c2ccccc21 |
| 157 to 158 | O=C1Nc2cc(Cl)ccc2OC1CCCBr (stereo not drawn) |
| 130 to 131 | BrC(Br)c1nc(C(Br)Br)nc(C(Br)Br)n1 |
| 165 to 166 | Cc1c(CNCC(C)(C)C)n(C)c2ccc(NC(=O)c3ccc(OC[C@@H]4CCCO4)cc3)cc12 |
| 126 to 128 | COC(=O)c1ccc(OCCC2CC(=O)N(c3ccc(Cl)cc3)C2)cc1 (stereo not drawn) |
| 108 to 109 | CSc1ccc(C(=O)O)c(C(F)(F)F)c1F |
| 90 to 93 | CCOC(=O)CCC(CCCCNS(=O)(=O)c1ccc(Cl)cc1)CCOc1cccnc1 (stereo not drawn) |
| 125 to 130 | Fc1ccc2c(c1)Sc1ccc(C(F)(F)F)cc1C2=C1CCNCC1 |
| 174 to 175 | COC1CCc2c(cc(-c3ccccc3)n2-c2ccc(O)cc2)C1 (stereo not drawn) |
| 103 to 105 | CC(C)Cc1c[nH]c(-c2ccnc(NC(=O)c3ccccc3)c2)n1 |
| 173 to 174 | CCOC(=O)CCCCn1c(=O)[nH]c2ccc([N+](=O)[O-])cc2c1=O |
| 158 to 161 | Oc1c(C(Nc2ccc(C(F)(F)F)cc2)c2ccccn2)ccc2cccnc12 (stereo not drawn) |

| melting point [°C] | Structure (SMILES) |
| --- | --- |
| 138 to 140 | O=C(Nc1ccc(CN2CCNCC2)cc1)c1cc(=O)c2ccccc2o1 |
| 147 to 148 | NC(=O)c1ccc(C(c2ccccc2[N+](=O)[O-])(C(F)(F)F)C(F)(F)F)cc1 |
| > 250 | COc1nc2nc(C=C3C(=O)N4C(C(=O)O)=CSC34)cn2c2c1CCC2 (stereo not drawn) |
| 137 to 138 | CC(=O)Nc1cccc(CCCCC(=O)O)c1 |
| 132 | CCn1c2ccc(C(=O)CC(C)=O)cc2c2cc(C(=O)c3ccc(F)cc3C)ccc21 |
| 169 to 171 | Nc1nc(N)c(CCCCc2ccc(C(=O)N[C@@H](CCC(=O)O)C(=O)O)cc2)c(O)n1 |
| 173 | CN(C)C=Nc1snc(C#N)c1C#N |
| 88.5 to 90.5 | O=C1c2ccc([N+](=O)[O-])cc2CC1Br (stereo not drawn) |
| 136 | CC(C)CNc1nc2cc(Cl)c(Cl)cc2n1[C@H]1O[C@@H](CO)[C@H](O)[C@@H]1O |
| 174 to 175 | CCOC(=O)c1ccc(C(=O)Nc2ccc3c(c2)N(C)C(=O)CCC3(C)C)cc1 |
| 92 to 94 | Cc1c(C)c2ccc(OCCCN3CCC(N)CC3)cc2oc1=O |
| 95 to 96 | Fc1ccccc1-c1ccc(Cl)nn1 |
| 72 to 77 | CCOC(=O)c1ccc2c(c1)CC(CO)O2 (stereo not drawn) |
| 196 | CN1CCC2(CC1)NC(c1ccccc1)c1cc(Cl)ccc1N(C)C2=O (stereo not drawn) |
| 58 to 59 | COc1ccc(CSc2ccc3c(c2)C=CC(C)(C)O3)cc1 |
| 128 to 129 | COc1ccc2c(Cc3ccco3)nnc(-c3ccccc3)c2c1 |
| 256 to 258 | O=C(c1ccc(O)nc1)N1CCN=C1Nc1c(Cl)cccc1Cl |
| 236 to 239 | CCCn1c(COCC)nc2c(N)nc3ccc(OC4CCN(C(=O)NC(C)C)CC4)cc3c21 |
| 243 to 246 | CN(C)c1ccc(N=Nc2nc3ccccc3s2)cc1 |
| 311 to 313 | COc1ccc(S(=O)(=O)Nc2ccncc2)c2c1[nH]c1ccccc12 |
| 144 | CCCCN1C(=O)NC(Cc2ccc(C(=O)OC)cc2)C1=O (stereo not drawn) |
| 110 to 118 | c1ccc(Cc2nnn[nH]2)c(COc2ccc3oc(-c4nc5c(s4)NCCCC5)cc3c2)c1 |
| 33 to 36 | C[C@@H]1CNCCN1C(=O)OC(C)(C)C |
| 116 | CC(C)(C)OC(=O)NC[C@@H]1CNC(=O)O1 |

| melting point [°C] | Structure (SMILES) |
| --- | --- |
| 120 | OC1CCSC(=S)N1c1ccccn1 (stereo not drawn) |
| 77 to 78 | C=Cc1ccc(P(c2ccccc2)c2ccccc2)cc1 |
| 216 | COc1cc(OC)c(C2CCN(C)CC2O)c(O)c1C(C)=O (stereo not drawn) |
| 156 to 158 | COc1ccc2c(c1)CCN(C=O)C2c1cc(Cl)nc(Cl)c1 (single isomer, unassigned; (-)) |
| 72 to 76 | O=C(O)CCCCCC(c1cc(F)ccc1F)S(=O)(=O)c1ccc(Cl)cc1 (stereo not drawn) |
| 122 to 123 | CCn1nnnc1SCc1c(S(C)(=O)=O)ccc(C(=O)OC2=CC(=O)CCC2)c1Cl |
| 170 to 172 | CCC(C)(C)C(O)(C#Cc1cccnc1)c1cncnc1 (stereo not drawn) |
| 93 to 94 | COC(=O)C1=CCC2C(CCC3C(C)(C)CCCC23C)C(=O)C1 (stereo not drawn) |
| 172 to 173 | CN1Cc2cccnc2N(c2ccccc2)C1=O |
| 184 to 186 | COc1cc(C(C#Cc2cnc(N)nc2N)OC)cc(OC)c1OC (stereo not drawn) |
| 76 to 91 | Cc1nc2scc(-c3ccccc3)n2c(=O)c1CCN1CCC(c2noc3cc(F)ccc23)CC1 |
| 248 to 251 | Cc1ccc2cccc(OCc3c(Cl)ccc(N)c3C#N)c2n1 |
| 219 to 222 | CC1Oc2ccc(Cn3ccnc3)cc2NC1=O (stereo not drawn) |
| 277 | CCc1[nH]n(-c2c(Cl)cc(C(=O)O)cc2Cl)c2nc(Cc3ccc(OC)cc3)nc(=O)c1-2 |
| 99 to 101 | COCCN1CCN(c2cccc(-c3nc4cc(OC)cc(OC)c4c(=O)[nH]3)n2)CC1 |
| 209 to 212 | O=C(O)C1=Cc2ccc(-c3ccccc3)cc2OC1C(F)(F)F (stereo not drawn) |
| 71 to 75 | COc1ccc2sc(SCc3c(F)c(F)c(F)c(F)c3F)nc2c1 |
| 74 to 76 | CCN(C)C(=O)NC(=N)SC |
| 47 to 48 | FC(F)(F)c1nc2ccnc(Cl)n2n1 |
| 135 to 136 | Cc1csc2ncc(C(O)CC(C)c3ccccc3)n12 (stereo not drawn) |
| 184 to 186 | NC1=NN(c2ccccc2)C(c2ccc(Cl)cc2)C1 (stereo not drawn) |
| 129 | CCCCCCCCNC(=O)Nc1ccccc1C(=O)NC1CCN(Cc2ccccc2)CC1 |
| 147 to 149 | Cc1cn2nc(SCc3ccccc3)nc2nc1C |
| 209 to 211 | O=C(Nc1ccc2cc(CN3CCCCC3)ccc2c1)N1CCC(c2ccc(F)cc2)CC1 |

| melting point [°C] | Structure (SMILES) |
| --- | --- |
| 154 to 155 | CCC(CC)Cn1c(=O)c(=O)[nH]c2cc([N+](=O)[O-])c(-n3cccc3)cc21 |
| 51 to 52 | C[C@@H]1OC(=O)C[C@H]2O[C@@H]12 |
| 154 to 156 | CCc1oc(C)cc(=O)c1C(=O)Nc1ccccc1 |
| 173 to 175 | O=C(NC(=O)c1c(F)cccc1F)Nc1ccc(SC(F)(F)F)cc1F |
| 225 to 227 | c1ccc(Oc2ccc3nnn(Cc4ccc5ncccc5c4)c3n2)cc1 |
| 212 to 214 | CC(C)(C)OC(=O)N1CCN(c2ccc(OCC3(C)Cn4cc([N+](=O)[O-])nc4O3)cc2)CC1 (stereo not drawn) |
| 179 to 180 | CC(C)(C)c1cc(OCCCc2nnn[nH]2)cc(C(C)(C)C)c1O |
| 137 to 139 | COc1ccc(NC(=N)c2cccnc2)cc1 |
| 164 to 166 | CS(=O)(=O)c1ccc(-c2cnn(-c3ccc(F)c(Cl)c3)c(=O)c2Cc2ccccc2)cc1 |
| 201 to 203 | O=C1CC(c2cccc(-n3ccnc3)c2)=Nc2ccc(C#Cc3ccccc3F)cc2N1 |
| 149 to 150 | CC(C)(C)NC(=O)[C@@H]1C[C@H](Cl)CN1C(=O)OC(C)(C)C |
| 107 to 108 | CCOC(=O)C(=CNc1cccc(-c2ccncc2)c1)C(C)=O |
| 127 to 129 | CC(COc1ccc2c(c1)C(=O)NC(C)(C)O2)NCc1ccccc1 (stereo not drawn) |
| 137 to 140 | Cc1[nH]c2ccccc2c1C(=O)CCCl |
| 108 | CCC1(CC)OC(C(=O)O)Oc2ccc(Cl)cc21 (stereo not drawn) |
| 77 to 78 | Cc1c(C)c2c(c(C)c1NCc1ccccc1)C(c1ccc(-c3ccccc3)cc1)CO2 (stereo not drawn) |
| 135 to 139 | CCOC(=O)c1c(CCc2ccc(OC)cc2)oc2ccc(C#N)cc12 |
| 137 | CCCCn1c(=O)c2[nH]cnc2n(CCCC)c1=S |
| 134 to 135 | O=C(Nc1cnccn1)N1CCN(c2nc(-c3ccccc3)cs2)CC1 |
| 123 to 124 | CC(C)(C)OC(=O)N1CCN(c2ccc(NC(=O)Nc3nc(C(C)(C)C)cs3)cc2)CC1 |
| 224 to 226 | CC(C)(C)n1cnc2c1c1ccccc1n1nnnc21 |
| 189 to 192 | c1cc(-c2ccc3nncn3n2)cs1 |
| 136 to 137 | CCCC(=O)Cc1ccc(C(=O)Nc2ccc3cc(CN4CCCCCC4)cnc3c2C)cc1 |
| 155 to 157 | CCOc1c(N2CCC(Oc3ccc(CC(=O)N4CCN(c5ccccc5C)CC4C(N)=O)c(OC)c3)CC2)c(=O)c1=O (stereo not drawn) |

| Structure (SMILES) | melting point [°C] |
| --- | --- |
| COc1cc(N2[C@H](C)C[C@](C)(O)[C@@H]2C)ccc1C#N | 121 to 123 |
| CC(Cl)(Cl)C(NC(=O)c1ccc(Cl)cc1)NC(=N[N+](=O)[O-])Nc1cccnc1 (stereo not drawn) | 170 to 172 |
| O=C(O)C(Cl)=C(Cl)C(=O)N(CCCl)CCCl | 107 to 110 |
| O=C(CN1CC(c2ccc(Cl)cc2)CC1=O)N1CCNCC1 (stereo not drawn) | 148 to 150 |
| Cc1cc(C2=NOC(c3cc(Cl)cc(Cl)c3)(C(F)(F)F)C2)ccc1S(=O)(=O)NCc1ccccn1 (stereo not drawn) | 57 to 58 |
| CCOP(=O)(OCC)Oc1ccc(/C=C2/C(=O)Nc3cc(OC)c(OC)cc32)cc1 | 139 to 141 |
| CNC(=O)ON=C1Oc2ccccc2OC1(C)C | 174 to 176 |
